The values below come from US20220062299A1, “USE OF GLUCOCORTICOID STEROIDS IN PREVENTING AND TREATING CONDITIONS OF MUSCLE WASTING, AGING AND METABOLIC DISORDER” (NORTHWESTERN UNIVERSITY, priority 2018, published 2022).

The subject of this assay is mdx mice. Nature of the assay: Morbidity, muscle mass, muscle function, plethysmography, echocardiography, mdx mice, 40 weeks. It is filed as in vivo, mouse. Particulars: weekly prednisone. How it is done: Histology. Excised tissues (muscles, omental fat, heart) were placed in 10% formaldehyde (Cat #245-684; Fisher Scientific, Waltham, Mass.) for histologic processing. Seven μm sections from the center of paraffin-embedded muscles were stained with hematoxylin and eosin (H&E; cat #12013B, 1070C; Newcomer Supply, Middleton, Wis.) and Masson's trichrome (Cat #HT-15; Sigma-Aldrich; St. Louis, Mo.). Myofiber/adipocyte CSA quantitation was conducted on 400 myofibers/adipocytes per tissue per mouse. Imaging was performed using a Zeiss Axio Observer A1 microscope, using 10× and 20× (short-range) objectives. Brightfield pictures were acquired via Gryphax software (version 1.0.6.598; Jenoptik, Jena, Germany). Area quantitation was performed by means of ImageJ (Schneider et al., 2012). Sample processing, imaging and CSA quantitation were conducted blinded to treatment groups.
Muscle function, whole-body plethysmography, echocardiography. Forelimb grip strength was monitored using a meter (Cat #1027SM; Columbus Instruments, Columbus, Ohio) blinded to treatment groups. Animals performed ten pulls with 5 seconds rest on a flat surface between pulls. Immediately before sacrifice, in situ tetanic force from tibialis anterior muscle was measured using a Whole Mouse Test System (Cat #1300A; Aurora Scientific, Aurora, ON, Canada) with a 1N dual-action lever arm force transducer (3000-LR, Aurora Scientific, Aurora, ON, Canada) in anesthetized animals (0.8 I/min of 1.5% isoflurane in 100% O2). […] Time of contraction was assessed as time to max tetanic value within the 0.0-0.5 sec range of each tetanic contraction, while time of relaxation was assessed as time to 90% min tetanic value within the 0.5-0.8 sec range of every tetanus. […] Data was recorded for a total of 15 minutes broken into 3 consecutive 5-minute periods. […] Cardiac function was assessed by echocardiography, which was conducted under anesthesia (0.8 L/min of 1.5% vaporized isoflurane in 100% O2) on mice between 2 and 5 days before sacrifice. […]

`C[C@]12C=CC(=O)C=C1CC[C@@H]1[C@@H]2C(=O)C[C@@]2(C)[C@H]1CC[C@]2(O)C(=O)CO` [prednisone, Prednisone]: the morbidity entry (mdx male mice, 40 weeks from 6 weeks of age) was “improved”. Where the note is “mdx mice, 40 weeks”, the “muscle mass and force” value is on record as “increased”; the “performance of limb muscles, respiratory muscles, and heart” value is on record as “improved”.
